Laboratory results reported in US20070054916A1, “Aryl nitrogen-containing bicyclic compounds and methods of use” (Amgen Inc., priority 2004, published 2007).

Tested on: production of TNF by monocytes activated with bacterial lipopolysaccharide (LPS)
Assay: Lipopolysaccharide-activated monocyte TNF production assay
Assay type: cell-based
Conditions: Homo sapiens, read-out: IC50 values in the monocyte assay (LPS induced TNF release)
Description: Lipopolysaccharide-Activated Monocyte TNF Production Assay
Test compounds were evaluated in vitro for the ability to inhibit the production of TNF by monocytes activated with bacterial lipopolysaccharide (LPS). Fresh residual source leukocytes (a byproduct of plateletpheresis) were obtained from a local blood bank, and peripheral blood mononuclear cells (PBMCs) were isolated by density gradient centrifugation on Ficol-Paque Plus (Pharmacia). PBMCs were suspended at 2×10^6/ml in DMEM supplemented to contain 2% FCS, 10 mM, 0.3 mg/ml […], 100 U/ml penicillin G and […] streptomycin sulfate (complete media). Cells were plated into Falcon flat bottom, 96 well culture plates (200 μl/well) and cultured overnight at 37° C. and 6% CO2. Non-adherent cells were removed by washing with 200 μl/well of fresh medium. Wells containing adherent cells (˜70% monocytes) were replenished with 100 μl of fresh medium.
Preparation of Test Compound Stock Solutions
Test compounds were dissolved in […]. Compound stock solutions were prepared to an initial concentration of […]. Stocks were diluted initially to 20-200 μM in complete media. Nine two-fold serial dilutions of each compound were then prepared in complete medium.
Treatment of Cells with Test Compounds and Activation of TNF Production with Lipopolysaccharide
One hundred microliters of each test compound dilution were added to microtiter wells containing adherent monocytes and 100 μl complete medium. Monocytes were cultured with test compounds for 60 min at which time 25 μl of complete medium containing 30 ng/ml lipopolysaccharide from E. coli K532 were added to each well. Cells were cultured an additional 4 hrs. Culture supernatants were then removed and TNF presence in the supernatants was quantified using an ELISA.
Flat bottom, 96 well Corning High Binding ELISA plates were coated overnight (4° C.) with 150 μL/well of 3 μg/ml murine anti-human TNF-α MAb (R&D Systems #MAB210). Wells were then blocked for 1 hr at room temperature with 200 μL/well of CaCl2-free ELISA buffer supplemented to contain 20 mg/ml BSA (standard ELISA buffer: […], 150 mM NaCl, 2 mM CaCl2, 0.15 mM thimerosal, pH 7.4). Plates were washed and replenished with 100 μl of test supernatants (diluted 1:3) or standards. Standards consisted of eleven 1.5-fold serial dilutions from a stock of 1 ng/ml recombinant human TNF (R&D Systems). Plates were incubated at room temperature for 1 hr on orbital shaker (300 rpm), washed and replenished with 100 μl/well of 0.5 ug/ml goat anti-human TNF-α (R&D systems #AB-210-NA) biotinylated at a 4:1 ratio. Plates were incubated for 40 min, washed and replenished with 100 μl/well of alkaline phosphatase-conjugated streptavidin (Jackson ImmunoResearch #016-050-084) at 0.02 ug/ml. Plates were incubated 30 min, washed and replenished with 200 μl/well of 1 mg/ml of p-nitrophenyl phosphate. After 30 min, plates were read at 405 nm on a Vmax plate reader.
Standard curve data were fit to a second order polynomial and unknown TNF-α concentrations determined from their OD by solving this equation for concentration. TNF concentrations were then plotted vs. test compound concentration using a second order polynomial. This equation was then used to calculate the concentration of test compounds causing a 50% reduction in TNF production.

## CNc1ncc2cc(-c3cc(C(=O)Nc4cc(C(F)(F)F)ccc4F)ccc3C)ccc2n1 [Example 1, N-(2-fluoro-5-(trifluoromethyl)phenyl)-4-methyl-3-(2-(methylamino)quinazolin-6-yl)benzamide]
  IC50: ≤ 25 µM

## CNc1ncc2cc(-c3cc(C(=O)Nc4ccc(Cl)c(C(F)(F)F)c4C)ccc3C)ccc2n1 [Example 3, N-(4-chloro-2-methyl-3-(trifluoromethyl)phenyl)-4-methyl-3-(2-(methylamino)-quinazolinyl)benzamide]
  IC50: ≤ 25 µM

## Cc1ccc(C(=O)Nc2ccc(NC(=O)NCCN3CCOCC3)c(C(F)(F)F)c2)cc1-c1ccc2nc(N)ncc2c1 [Example 4]
  IC50: ≤ 25 µM

## CCN(CC)CCNC(=O)Nc1ccc(NC(=O)c2ccc(C)c(-c3ccc4nc(N)ncc4c3)c2)cc1C(F)(F)F [Example 5, 3-(2-amino-6-quinazolinyl)-N-(4-((((2-(diethylamino)ethyl)amino)carbonyl)amino)-3-(trifluoromethyl)phenyl)-4-methylbenzamide]
  IC50: ≤ 25 µM

## Cc1ccc(C(=O)Nc2cc(C(=O)NCCN3CCOCC3)cc(C(F)(F)F)c2)cc1-c1ccc2nc(N)ncc2c1 [Example 6]
  IC50: ≤ 25 µM

## CCN(CC)CCNC(=O)c1cc(NC(=O)c2ccc(C)c(-c3ccc4nc(N)ncc4c3)c2)cc(C(F)(F)F)c1 [Example 7]
  IC50: ≤ 25 µM

## Cc1ccc(C(=O)Nc2cc(C(C)(C)C)ccc2NC(=O)CN2CCOCC2)cc1-c1ccc2nc(N)ncc2c1 [Example 8]
  IC50: ≤ 25 µM

## CNc1ncc2cc(-c3ccc(F)c(C(=O)Nc4cc(C(F)(F)F)ccc4N(C)CCCN(C)C)c3)ccc2n1 [Example 9, N-(2-((3-(dimethylamino)propyl)(methyl)amino)-5-(trifluoromethyl)phenyl)-2-fluoro-5-(2-(methylamino)-6-quinazolinyl)benzamide]
  IC50: ≤ 25 µM

## CNc1ncc2cc(-c3cc(C(=O)Nc4cccc(C(F)(F)F)c4C)ccc3C)ccc2n1 [Example 11, 4-methyl-3-(2-(methylamino)-6-quinazolinyl)-N-(2-methyl-3-(trifluoromethyl)phenyl)benzamide]
  IC50: ≤ 25 µM

## CNc1ncc2cc(-c3cc(C(=O)Nc4ccc(Cl)c(C(F)(F)F)c4)ccc3C)ccc2n1 [Example 12, N-(4-chloro-3-(trifluoromethyl)phenyl)-4-methyl-3-(2-(methylamino)-6-quinazolinyl)benzamide]
  IC50: ≤ 25 µM

## CNc1ncc2cc(-c3cc(C(=O)Nc4cccc(C(F)(F)F)c4)ccc3C)ccc2n1 [Example 18, 4-methyl-3-(2-(methylamino)-6-quinazolinyl)-N-(3-(trifluoromethyl)phenyl)benzamide]
  IC50: ≤ 25 µM

## Cc1ccc(C(=O)Nc2cccc(C(F)(F)F)c2F)cc1-c1ccc2nc(N)ncc2c1 [Example 19, 3-(2-amino-6-quinazolinyl)-N-(2-fluoro-3-(trifluoromethyl)phenyl)-4-methylbenzamide]
  IC50: ≤ 25 µM

## Cc1ccc(C(=O)Nc2cccc(C(F)(F)F)c2)cc1-c1ccc2nc(NCCN3CCOCC3)ncc2c1 [Example 20, 4-methyl-3-(2-((2-(4-morpholinyl)ethyl)amino)-6-quinazolinyl)-N-(3-(trifluoromethyl)phenyl)benzamide]
  IC50: ≤ 25 µM

## Cc1ccc(C(=O)Nc2cccc(C(F)(F)F)c2F)cc1-c1ccc2nc(NCCCN3CCOCC3)ncc2c1 [Example 23, N-(2-fluoro-3-(trifluoromethyl)phenyl)-4-methyl-3-(2-((3-(4-morpholinyl)propyl)amino)-6-quinazolinyl) benzamide]
  IC50: ≤ 25 µM

## COCCNc1ncc2cc(-c3cc(C(=O)Nc4cccc(C(F)(F)F)c4F)ccc3C)ccc2n1 [Example 24, N-(2-fluoro-3-(trifluoromethyl)phenyl)-4-methyl-3-(2-((2-(methyloxy)ethyl)amino)-6-quinazolinyl) benzamide]
  IC50: ≤ 25 µM

## Cc1ccc(C(=O)Nc2cccc(C(F)(F)F)c2F)cc1-c1ccc2nc(NC3CCN(C)CC3)ncc2c1 [Example 25]
  IC50: ≤ 25 µM

## Cc1ccc(C(=O)Nc2cccc(C(F)(F)F)c2F)cc1-c1ccc2nc(NCCN3CCCC3)ncc2c1 [Example 26, N-(2-fluoro-3-(trifluoromethyl)phenyl)-4-methyl-3-(2-((2-(1-pyrrolidinyl)ethyl)amino)-6-quinazolinyl) benzamide]
  IC50: ≤ 25 µM

## Cc1ccc(C(=O)Nc2cccc(C(F)(F)F)c2C)cc1-c1ccc2nc(NCCN3CCOCC3)ncc2c1 [Example 28, 4-methyl-N-(2-methyl-3-(trifluoromethyl)phenyl)-3-(2-((2-(4-morpholinyl)ethyl)amino)-6-quinazolinyl) benzamide]
  IC50: ≤ 25 µM

## Cc1ccc(C(=O)Nc2cccc(C(F)(F)F)c2)cc1-c1ccc2nc(NC3CC3)ncc2c1 [Example 29, 3-(2-(cyclopropylamino)-6-quinazolinyl)-4-methyl-N-(3-(trifluoromethyl)phenyl)benzamide]
  IC50: ≤ 25 µM

## Cc1ccc(C(=O)Nc2cccc(C(F)(F)F)c2F)cc1-c1ccc2nc(Nc3ccc(N4CCN(C)CC4)cc3)ncc2c1 [Example 30, N-(2-fluoro-3-(trifluoromethyl)phenyl)-4-methyl-3-(2-((4-(4-methyl-1-piperazinyl)phenyl)amino)-6-quinazolinyl) benzamide]
  IC50: ≤ 25 µM

## Cc1ccc(C(=O)Nc2cccc(C(F)(F)F)c2F)cc1-c1ccc2nc(Nc3ccc(OCCCN4CCCCC4)cc3)ncc2c1 [Example 31, N-(2-fluoro-3-(trifluoromethyl)phenyl)-4-methyl-3-(2-((4-((3-(1-piperidinyl)propyl)oxy)phenyl)amino)-6-quinazotinyl) benzamide]
  IC50: ≤ 25 µM

## Cc1ccc(C(=O)Nc2cccc(C(F)(F)F)c2C)cc1-c1ccc2nc(NCCCN3CCOCC3)ncc2c1 [Example 32, 4-methyl-N-(2-methyl-3-(trifluoromethyl)phenyl)-3-(2-((3-(4-morpholinyl)propyl)amino)-6-quinazolinyl) benzamide]
  IC50: ≤ 25 µM

## Cc1ccc(C(=O)Nc2cccc(C(F)(F)F)c2C)cc1-c1ccc2nc(NCCN3CCCC3)ncc2c1 [Example 33, 4-methyl-N-(2-methyl-3-(trifluoromethyl)phenyl)-3-(2-((2-(1-pyrrolidinyl)ethyl)amino)-6-quinazolinyl) benzamide]
  IC50: ≤ 25 µM

## Cc1ccc(C(=O)Nc2cccc(C(F)(F)F)c2C)cc1-c1ccc2nc(NCCCN3CCCC3=O)ncc2c1 [Example 34, 4-methyl-N-(2-methyl-3-(trifluoromethyl)phenyl)-3-(2-((3-(2-oxo-1-pyrrolidinyl)propyl)amino)-6-quinazolinyl) benzamide]
  IC50: ≤ 25 µM

## CCN1CCC(CNc2ncc3cc(-c4cc(C(=O)Nc5cccc(C(F)(F)F)c5C)ccc4C)ccc3n2)CC1 [Example 35, 3-(2-(((1-ethyl-4-piperidinyl)methyl)amino)-6-quinazolinyl)-4-methyl-N-(2-methyl-3-(trifluoromethyl)phenyl)benzamide]
  IC50: ≤ 25 µM

## Cc1ccc(C(=O)Nc2cccc(C(F)(F)F)c2C)cc1-c1ccc2nc(NC3CCN(C)CC3)ncc2c1 [Example 36, 4-methyl-3-(2-((1-methyl-4-piperidinyl)amino)-6-quinazolinyl)-N-(2-methyl-3-(trifluoromethyl)phenyl)benzamide]
  IC50: ≤ 25 µM

## Cc1ccc(C(=O)Nc2cccc(C(F)(F)F)c2C)cc1-c1ccc2nc(NC3CC3)ncc2c1 [Example 37, 3-(2-(cyclopropylamino)-6-quinazolinyl)-4-methyl-N-(2-methyl-3-(trifluoromethyl)phenyl)benzamide]
  IC50: ≤ 25 µM

## CNc1ncc2cc(-c3cc(C(=O)Nc4cccc(C(F)(F)F)c4)c(F)cc3C)ccc2n1 [Example 38, 2-fluoro-4-methyl-5-(2-(methylamino)-6-quinazolinyl)-N-(3-(trifluoromethyl)phenyl)benzamide]
  IC50: ≤ 25 µM

## Cc1cc(F)c(C(=O)Nc2cccc(C(F)(F)F)c2)cc1-c1ccc2nc(NC3CC3)ncc2c1 [Example 39, 5-(2-(cyclopropylamino)-6-quinazolinyl)-2-fluoro-4-methyl-N-(3-(trifluoromethyl)phenyl)benzamide]
  IC50: ≤ 25 µM

## Cc1ccc(C(=O)NC2CC2)cc1-c1ccc2nc(N)ncc2c1 [Example 40, 3-(2-amino-6-quinazolinyl)-N-cyclopropyl-4-methylbenzamide]
  IC50: ≤ 25 µM
